Here are results for 14 compounds from patent publication US12473291B2 (priority 2019, dated 2025).

The test system of one test is KM mice. In words: animal or person. The following applies: for 2ED50 duration / 2ED50 recovery time / Quality of recovery: KM mice; for 2ED50 duration / 2ED50 recovery time: single tail vein injection at 2×ED50; for 2ED50 duration: time from disappearance to recovery of righting reflex; for 2ED50 recovery time: time from recovery of righting reflex to free crawling; for ED50: Mus musculus, KM mice (male, 18-22 g), injection via the tail vein, disappearance of righting reflex, read-out: ED50; for duration and recovery time compared with remimazolam / effective dose compared with remimazolam: mice, tail vein, in words; for Quality of recovery: tail vein injection. The format is in vivo.

Another test has as its system SD rats. As to the kind of experiment: animal or person. The format is in vivo. The following applies: for ED50: Rattus norvegicus, SD rats (male, 220-300 g), injection via the tail vein, disappearance of righting reflex, read-out: ED50; for 2ED50 duration / 2ED50 recovery time / Quality of recovery: SD rats; for 2ED50 duration / 2ED50 recovery time: single tail vein injection at 2×ED50; for 2ED50 duration: time from disappearance to recovery of righting reflex; for 2ED50 recovery time: time from recovery of righting reflex to free crawling; for Quality of recovery: tail vein injection; for duration and recovery time compared with remimazolam / effective dose compared with remimazolam: rats, tail vein, in words.

Take `Cc1cnc2n1-c1ccc(Br)cc1C(c1ccccn1)=N[C@H]2CCC(=O)OC(C)OC(=O)OC(C)C` (stereo partly drawn) [Example 55]: in the test on KM mice, the 2ED50 duration is listed as 4.65 min; the 2ED50 recovery time is 1.29 min; the ED50 is 28.1 mg/kg; the “duration and recovery time compared with remimazolam” value is “significantly shorter”. Further, in the test with KM mice, the “effective dose compared with remimazolam” value is listed as “significantly lower”. Moreover, in the test on SD rats, the ED50 was 5.2 mg/kg, the “2ED50 duration” value was determined as 3.28 min, the 2ED50 recovery time is recorded as 2.51 min and the Quality of recovery result was “+ (“+” means <1 min)”. In addition, in the test with SD rats, the “duration and recovery time compared with remimazolam” value was “significantly shorter”; the “effective dose compared with remimazolam” value is “significantly lower”.

Take `COC(=O)COC(=O)CC[C@@H]1N=C(c2ccccn2)c2cc(Br)ccc2-n2c(C)cnc21` [Example 56, 2-Methoxy-2-oxoethyl-3-((4S)-8-bromo-1-methyl-6-(pyridine-2-yl)-4H-benzo[f]imidazo[1,2-a][1,4]diaza-4-ylpropionate]: in the test on KM mice, the 2ED50 duration came out at 4.08 min, the 2ED50 recovery time amounted to 1.20 min, the Quality of recovery entry is given as “++ (“++” means 1-3 min)” and the ED50 turned out to be 27.2 mg/kg. In addition, in the test on SD rats, the ED50 was 6.8 mg/kg, the “2ED50 duration” value stood at 1.05 min, the 2ED50 recovery time amounted to 1.12 min and the Quality of recovery entry is given as “++ (“++” means 1-3 min)”.

`CCOC(=O)COC(=O)CC[C@@H]1N=C(c2ccccn2)c2cc(Br)ccc2-n2c(C)cnc21` [Example 57, 2-Ethoxy-2-oxoethyl-3-((4S)-8-bromo-1-methyl-6-(pyridine-2-yl)-4H-benzo [f]imidazo[1,2-a][1,4]diaza-4-ylpropionate]: in the test on KM mice, the 2ED50 duration amounted to 3.90 min; the 2ED50 recovery time amounted to 2.31 min; the median effective dose (ED50) is 25 mg/kg; the “duration and recovery time compared with remimazolam” value was “significantly shorter”. Further, the “effective dose compared with remimazolam” value in the test with KM mice is listed as “significantly lower”. Besides, in the test with SD rats, the ED50 is 4.7 mg/kg, the “2ED50 duration” value turned out to be 5.07 min, the 2ED50 recovery time was 2.41 min and the Quality of recovery result is reported as “+ (“+” means <1 min)”. Besides, in the test on SD rats, the “duration and recovery time compared with remimazolam” value was “significantly shorter”; the “effective dose compared with remimazolam” value is listed as “significantly lower”.

Consider `COC(=O)C1(OC(=O)CC[C@@H]2N=C(c3ccccn3)c3cc(Br)ccc3-n3c(C)cnc32)CC1` [Example 58, Methyl 1-((3-((4S)-8-bromo-1-methyl-6-(pyridine-2-yl)-4H-benzo[f]imidazo [1,2-a][1,4]diaza-4-yl)propionyl)oxy) cyclopropane-1-carboxylate], for which, in the test on KM mice, the 2ED50 duration worked out at 3.18 min, the 2ED50 recovery time is 1.41 min, the Quality of recovery result is reported as “+++ (“+++” means 3-5 min)” and the ED50 is 28 mg/kg. Besides, in the test with SD rats, the ED50 was determined as 5.6 mg/kg, the “2ED50 duration” value is recorded as 5.09 min, the 2ED50 recovery time worked out at 3.01 min and the Quality of recovery result was “+++ (“+++” means 3-5 min)”.

Take `CCOC(=O)C1(OC(=O)CC[C@@H]2N=C(c3ccccn3)c3cc(Br)ccc3-n3c(C)cnc32)CC1` [Example 59, Ethyl 1-((3-((4S)-8-bromo-1-methyl-6-(pyridine-2-yl)-4H-benzo[f]imidazo [1,2-a][1,4]diaza-4-yl)propionyl)oxy) cyclopropane-1-carboxylate]: in the test on KM mice, the 2ED50 duration was found to be 2.77 min; the 2ED50 recovery time was 1.38 min; the median effective dose (ED50) was 13.8 mg/kg; the “duration and recovery time compared with remimazolam” value is given as “significantly shorter”. Further, in the test on KM mice, the “effective dose compared with remimazolam” value was “significantly lower”. In addition, in the test with SD rats, the ED50 is 1.76 mg/kg, the “2ED50 duration” value was found to be 5.02 min, the 2ED50 recovery time turned out to be 2.51 min and the Quality of recovery result is recorded as “++ (“++” means 1-3 min)”. Besides, in the test with SD rats, the “duration and recovery time compared with remimazolam” value is “significantly shorter”; the “effective dose compared with remimazolam” value was “significantly lower”.

Regarding `COC(=O)C(C)OC(=O)CC[C@@H]1N=C(c2ccccn2)c2cc(Br)ccc2-n2c(C)cnc21` (stereo partly drawn) [Example 60], in the test on KM mice, the 2ED50 duration turned out to be 2.46 min, the 2ED50 recovery time was 1.47 min, the Quality of recovery entry was “++ (“++” means 1-3 min)” and the 50% effective dose (ED50) is 22.5 mg/kg. Moreover, in the test with SD rats, the ED50 stood at 3.5 mg/kg, the “2ED50 duration” value amounted to 2.12 min, the 2ED50 recovery time was determined as 2.14 min and the Quality of recovery entry is reported as “+++ (“+++” means 3-5 min)”.

With `CCOC(=O)C(C)OC(=O)CC[C@@H]1N=C(c2ccccn2)c2cc(Br)ccc2-n2c(C)cnc21` (stereo partly drawn) [Example 61], in the test with KM mice, the 2ED50 duration came out at 3.01 min, the 2ED50 recovery time was found to be 1.58 min, the Quality of recovery result was “+++ (“+++” means 3-5 min)” and the ED50 was determined as 29.9 mg/kg. Further, in the test with SD rats, the 50% effective dose (ED50) was determined as 2.7 mg/kg, the “2ED50 duration” value turned out to be 1.21 min, the 2ED50 recovery time is 2.01 min and the Quality of recovery result is reported as “++ (“++” means 1-3 min)”.

In the case of `COC(=O)C(C)(C)OC(=O)CC[C@@H]1N=C(c2ccccn2)c2cc(Br)ccc2-n2c(C)cnc21` [Example 62, Methyl 2-((3-((4S)-8-bromo-1-methyl-6-(pyridine-2-yl)-4H-benzo[f]imidazo [1,2-a][1,4]diaza-4-yl)propionyl)oxy)-2-methylpropionate], in the test on KM mice, the 2ED50 duration was 3.23 min, the 2ED50 recovery time amounted to 1.27 min, the Quality of recovery entry is reported as “+++ (“+++” means 3-5 min)” and the ED50 was determined as 13.5 mg/kg. In addition, in the test on SD rats, the median effective dose (ED50) stood at 1.3 mg/kg, the “2ED50 duration” value was found to be 1.08 min, the 2ED50 recovery time came out at 2.14 min and the Quality of recovery entry is given as “+++ (“+++” means 3-5 min)”.

Regarding `CCc1c(Br)cc2c(c1Cl)-n1c(C)cnc1[C@H](CCC(=O)OC(C)(CC)SC(=O)OC)N=C2c1ccccn1` (stereo partly drawn) [Example 63], in the test on KM mice, the 2ED50 duration is on record as 3.14 min, the 2ED50 recovery time came to 2.03 min, the Quality of recovery result is reported as “++ (“++” means 1-3 min)” and the 50% effective dose (ED50) is 29.8 mg/kg. Moreover, in the test on SD rats, the ED50 is 3.5 mg/kg, the “2ED50 duration” value stood at 2.03 min, the 2ED50 recovery time worked out at 2.09 min and the Quality of recovery entry is given as “++ (“++” means 1-3 min)”.

Consider `Cc1cnc2n1-c1cc(Br)c(Br)cc1C(c1ccccn1)=N[C@H]2CCC(=O)OC1(C(=O)OOC2CC(Cl)C2)CC1` (stereo partly drawn) [Example 64], for which, in the test with KM mice, the 2ED50 duration turned out to be 3.09 min, the 2ED50 recovery time came out at 2.12 min, the Quality of recovery result was “+++ (“+++” means 3-5 min)” and the ED50 was found to be 24.1 mg/kg. In addition, in the test on SD rats, the ED50 was found to be 2.7 mg/kg, the “2ED50 duration” value came out at 3.15 min, the 2ED50 recovery time was 2.18 min and the Quality of recovery result was “++ (“++” means 1-3 min)”.

On to `CCOC(CCC(C)(C)OC(=O)CC[C@@H]1N=C(c2ccccn2)c2cc(Br)cc(Cl)c2-n2c(C)cnc21)C(=O)OC` (stereo partly drawn) [Example 65, Methyl 5-((3-((4S)-8-bromo-10-chloro-1-methyl-6-(pyridine-2-yl)-4H-benzo [f]imidazo[1,2-a][1,4]diazapin-4-yl)propionyl)oxy)-2-ethoxy-5-methylcaproate], for which, in the test with KM mice, the 2ED50 duration came out at 3.4 min, the 2ED50 recovery time was 2.04 min, the Quality of recovery result is recorded as “++ (“++” means 1-3 min)” and the ED50 came out at 31.2 mg/kg. For the same compound, in the test with SD rats, the ED50 came out at 6.3 mg/kg, the “2ED50 duration” value came to 3.25 min, the 2ED50 recovery time is 2.29 min and the Quality of recovery result is listed as “++++ (“++++” means 5-10 min)”.

For the compound `Cc1c(Br)cc2c(c1Cl)-n1c(C)cnc1[C@H](CCC(=O)OC(C)(C)NC(=O)OC1CCC1)N=C2c1ccccn1` [Example 66], in the test on KM mice, the 2ED50 duration is 3.14 min, the 2ED50 recovery time turned out to be 2.35 min, the Quality of recovery result is recorded as “+++ (“+++” means 3-5 min)” and the ED50 was 30.4 mg/kg. Also, in the test with SD rats, the ED50 worked out at 4.8 mg/kg, the “2ED50 duration” value was 4.02 min, the 2ED50 recovery time stood at 2.17 min and the Quality of recovery result was “++ (“++” means 1-3 min)”.

In the case of `COC(=O)C(CC(F)C(C)(C)OC(=O)CC[C@@H]1N=C(c2ccccn2)c2cc(Br)c(OC)cc2-n2c(C)cnc21)OC` (stereo partly drawn) [Example 67, Methyl 5-((3-((4S)-8-bromo-9-methoxy-1-methyl-6-(pyridine-2-yl)-4H-benzo [f]imidazo[1,2-a][1,4]diazapin-4-yl)propionyl)oxy)-4-fluoro-2-methoxy-5-hexanoate adipate], in the test on KM mice, the 2ED50 duration is listed as 2.58 min, the 2ED50 recovery time stood at 2.38 min, the Quality of recovery result is recorded as “++ (“++” means 1-3 min)” and the 50% effective dose (ED50) was found to be 31.7 mg/kg. Moreover, in the test on SD rats, the median effective dose (ED50) came out at 6.9 mg/kg, the “2ED50 duration” value is 3.18 min, the 2ED50 recovery time is listed as 3.01 min and the Quality of recovery result is given as “+++ (“+++” means 3-5 min)”.

As for `CCC(CC)OC(=O)OC(OC(=O)CC[C@@H]1N=C(c2ccccn2)c2cc(Cl)c(OC(F)(F)F)cc2-n2c(C)cnc21)C1CC(F)C(CC)C1` (stereo partly drawn) [Example 68, (3-Ethyl-4-fluorocyclopentyl) (((pentanyl-3-yloxy)carbonyl)oxy)methyl 3-((4S)-8-chloro-1-methyl-6-(pyridine-2-yl)-9-(trifluoromethoxy)-4H-benzo[f]imidazo[1,2-a][1,4]diazapin-4-yl) propionate L-aspartate], the 2ED50 duration in the test on KM mice is given as 3.09 min; with SD rats, 4.28 min. Also, the ED50 in the test with KM mice worked out at 28.9 mg/kg; in the test with SD rats, 5.9 mg/kg.
